Test results from US10899758B2, “Inhibitors of the menin-MLL interaction” (Vitae Pharmaceuticals, LLC, priority 2016, dated 2021).

Key:
[1] = biological target: T1, menin/MLL binding (biotinylated wild-type or mutated menin and MLL-AF9 fusion protein) (Homo sapiens, UniProt O00255); assay: Assay 1 (Binding Assay): AlphaLISA menin/MLL binding; conditions: 5 nM biotinylated menin, MLL-AF9-FLAG lysate
T1 construct: biotinylated (1) wild-type menin or (2) mutated menin (described in Nature (2012) Vol. 482, pp. 542-548); fused on or other part: Biotin attached chemically (Sulfo-NHS-Biotin); no fused second protein is printed for menin
T1 sequence (O00255 1-459 limits assumed): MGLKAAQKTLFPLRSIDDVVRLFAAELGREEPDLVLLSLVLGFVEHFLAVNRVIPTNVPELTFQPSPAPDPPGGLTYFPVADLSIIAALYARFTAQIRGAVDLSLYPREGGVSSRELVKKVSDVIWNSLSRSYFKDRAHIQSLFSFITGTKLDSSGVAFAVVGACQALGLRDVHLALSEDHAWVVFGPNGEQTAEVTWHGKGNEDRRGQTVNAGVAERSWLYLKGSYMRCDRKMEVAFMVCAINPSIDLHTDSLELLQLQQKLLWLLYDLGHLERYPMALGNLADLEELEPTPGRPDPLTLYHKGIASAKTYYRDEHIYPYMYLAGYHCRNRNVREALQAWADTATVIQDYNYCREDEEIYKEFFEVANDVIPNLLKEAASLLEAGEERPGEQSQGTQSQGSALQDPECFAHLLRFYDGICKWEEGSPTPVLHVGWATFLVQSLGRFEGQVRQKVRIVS
Procedure, shortened: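 Biotinylated E. coli-expressed menin (wild-type or mutant), 5 nM, incubated 30 min RT with compound and HEK293 lysate of MLL1-1,396–AF9-FLAG in pH 7.4 Tris buffer, 5% DMSO, 1 mM DTT. Anti-FLAG acceptor and streptavidin donor beads added, 60 min RT, AlphaLISA signal read. IC50 from four-parameter fit of % inhibition.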

[2] = test system: human acute monocytic leukemia cell line MV-4-11; assay: Assay 2 (Cell Proliferation Assay), ATP quantitation (CellTiter-Glo); format: cell-based; conditions: Homo sapiens, MV4-11, 72 h, MV-4-11 cells, read-out: Assay 2 (EC50, inhibition of cell proliferation)
Procedure, shortened: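 Cells (1.67×10^4/well, 10% FBS medium) incubated ±compound 72 h at 37 °C, 5% CO2; HL-60 served as toxicity control. ATP read by CellTiter-Glo luminescence; % inhibition scaled between DMSO and a potent menin inhibitor at ≥100×LD50.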

Row | Structure (SMILES) | IC50 [1] [nM] | EC50 [2] [nM]
1 | CC(C)N(C)C(=O)c1cc(F)ccc1-n1cc([C@H]2CC[C@H](N3CCCC3)CC2)c2ccncc21 [Example 55, 5-fluoro-N-isopropyl-N-methyl-2-(3-(trans-4-(pyrrolidin-1-yl)cyclohexyl)-1H-pyrrolo[2,3-c]pyridin-1-yl)benzamide] | < 100 | 100 to 1000
2 | CC(C)N(C)C(=O)c1cc(F)ccc1-n1cc(C2CCN(CC[C@H]3CC[C@H](NS(C)(=O)=O)CC3)CC2)c2ccncc21 [Example 19, 5-fluoro-N-isopropyl-N-methyl-2-(3-(1-(2-(trans-4-(methylsulfonamido)cyclohexyl)ethyl)piperidin-4-yl)-1H-pyrrolo[2,3-c]pyridin-1-yl)benzamide] | < 100 | < 100
3 | CC(=O)N[C@H]1CC[C@H](CN2CCC(c3cn(-c4ccc(F)cc4C(=O)N(C)C(C)C)c4cnccc34)CC2)CC1 [Example 20, 2-(3-(1-(((1r,4r)-4-acetamidocyclohexyl)methyl)piperidin-4-yl)-1H-pyrrolo[2,3-c]pyridin-1-yl)-5-fluoro-N-isopropyl-N-methylbenzamide] | < 100 | 100 to 1000
4 | CC(C)N(C)C(=O)c1cc(F)ccc1-n1cc(C2CCN(C[C@H]3CC[C@H](NS(C)(=O)=O)CC3)CC2)c2ccncc21 [Example 21, 5-fluoro-N-isopropyl-N-methyl-2-(3-(1-((trans-4-(methylsulfonamido)cyclohexyl)methyl)piperidin-4-yl)-1H-pyrrolo[2,3-c]pyridin-1-yl)benzamide] | < 100 | 100 to 1000
5 | CC(C)N(C)C(=O)c1cc(F)ccc1-n1cc(C2CCN(CCc3ccc(S(C)(=O)=O)cc3)CC2)c2ccncc21 [Example 24, 5-fluoro-N-isopropyl-N-methyl-2-(3-(1-(4-(methylsulfonyl)phenethyl)piperidin-4-yl)-1H-pyrrolo[2,3-c]pyridin-1-yl)benzamide] | < 100 | 100 to 1000
